In PubChem BioAssay AID248 (DTP/NCI, 2004):
Several values for one entry are separate records, joined by “and”; a condition that tells them apart may be missing. Identical values can stand only once. Toxic doses and inconclusive results are not listed.

Test system: L1210 leukemia ip in BDF1 mice, survival T/C
Assay: NCI In Vivo Anticancer Drug Screen. Data for tumor model L1210 Leukemia (intraperitoneal) in B6D2F1 (BDF1) mice
Conditions: endpoint: mean survival time, higher = longer survival
Summary of the method: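 In this screen, tumor-bearing mice given compound are compared to those given vehicle, and their survival values are reported as a treated-to-control quotient.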

[1] = dose: 100.0 mg/kg/injection, schedule: Q01DX001 (ip), vehicle: saline
[2] = dose: 200.0 mg/kg/injection, schedule: Q01DX001 (ip), vehicle: saline
[3] = dose: 400.0 mg/kg/injection, schedule: Q01DX001 (ip), vehicle: saline
[4] = dose: 100.0 mg/kg/injection, schedule: Q04DX002 (ip), vehicle: Klucel (hydroxypropylcellulose) (HPC)
[5] = dose: 200.0 mg/kg/injection, schedule: Q04DX002 (ip), vehicle: Klucel (hydroxypropylcellulose) (HPC)
[6] = dose: 400.0 mg/kg/injection, schedule: Q04DX002 (ip), vehicle: Klucel (hydroxypropylcellulose) (HPC)
[7] = dose: 12.5 mg/kg/injection, schedule: Q01DX009 (ip), vehicle: saline with Tween-80
[8] = dose: 50.0 mg/kg/injection, schedule: Q01DX009 (ip), vehicle: saline with Tween-80
[9] = dose: 12.5 mg/kg/injection, schedule: Q01DX009 (ip), vehicle: saline
[10] = dose: 25.0 mg/kg/injection, schedule: Q01DX009 (ip), vehicle: saline
[11] = dose: 25.0 mg/kg/injection, schedule: Q04DX003 (ip), vehicle: saline
[12] = dose: 50.0 mg/kg/injection, schedule: Q04DX003 (ip), vehicle: saline
[13] = dose: 100.0 mg/kg/injection, schedule: Q04DX003 (ip), vehicle: saline
[14] = dose: 50.0 mg/kg/injection, schedule: Q01DX009 (ip), vehicle: saline
[15] = dose: 100.0 mg/kg/injection, schedule: Q01DX009 (ip), vehicle: saline
[16] = dose: 200.0 mg/kg/injection, schedule: Q01DX009 (ip), vehicle: saline
[17] = dose: 400.0 mg/kg/injection, schedule: Q01DX009 (ip), vehicle: saline
[18] = dose: 100.0 mg/kg/injection, schedule: Q01DX009 (ip), vehicle: saline with Tween-80

## Cc1ccc(S(=O)(=O)OCC23CC4C5CC2C3(COS(=O)(=O)c2ccc(C)cc2)CC54)cc1
dose: 75.0 mg/kg/injection, schedule: Q01DX009 (ip), vehicle: Klucel (hydroxypropylcellulose) (HPC)
  T/C: 95 % of control
dose: 150.0 mg/kg/injection, schedule: Q01DX009 (ip), vehicle: Klucel (hydroxypropylcellulose) (HPC)
  T/C: 98 % of control
dose: 300.0 mg/kg/injection, schedule: Q01DX009 (ip), vehicle: Klucel (hydroxypropylcellulose) (HPC)
  T/C: 93 % of control

## COc1ccc(C(SCC(NC(=O)OCc2ccccc2)C(=O)O)c2ccc(OC)cc2)cc1 (stereo not drawn)
dose: 75.0 mg/kg/injection, schedule: Q01DX001 (ip), vehicle: carboxymethylcellulose (CMC)
  T/C: 91 % of control
dose: 150.0 mg/kg/injection, schedule: Q01DX001 (ip), vehicle: carboxymethylcellulose (CMC)
  T/C: 91 % of control
dose: 300.0 mg/kg/injection, schedule: Q01DX001 (ip), vehicle: carboxymethylcellulose (CMC)
  T/C: 89 % of control

## CC1(C)OCC(C2OC(C)(C)OC2C(CO)Nc2ccc([N+](=O)[O-])cc2[N+](=O)[O-])O1 (stereo not drawn)
[1]
  T/C: 98 % of control
[2]
  T/C: 93 % of control
[3]
  T/C: 93 % of control

## O=C(Nc1ccc(I)cc1)c1ccc([N+](=O)[O-])cc1
[4]
  T/C: 99 % of control
[5]
  T/C: 101 % of control
[6]
  T/C: 115 % of control

## NS(=O)(=O)O
[7]
  T/C: 103 % of control
dose: 25.0 mg/kg/injection, schedule: Q01DX009 (ip), vehicle: saline with Tween-80
  T/C: 95 % of control
[8]
  T/C: 89 % of control

## CC1C[N-]CC(C)C1.CC1C[N-]CC(C)C1.[Cl][Pt+2]([Cl])([Cl])[Cl] (stereo not drawn)
[9]
  T/C: 107 % of control
dose: 12.5 mg/kg/injection, schedule: Q04DX003 (ip), vehicle: saline
  T/C: 87 % of control
[10]
  T/C: 102 % of control
[11]
  T/C: 87 % of control
[12]
  T/C: 95 % of control and 106 % of control
[13]
  T/C: 91 % of control

## CN1CCN=C(c2ccccc2)c2cc(Cl)ccc21
dose: 6.25 mg/kg/injection, schedule: Q01DX009 (ip), vehicle: saline
  T/C: 110 % of control
[9]
  T/C: 101 % of control
[10]
  T/C: 94 % of control
[11]
  T/C: 93 % of control
[14]
  T/C: 100 % of control
[12]
  T/C: 93 % of control
[15]
  T/C: 95 % of control
[13]
  T/C: 98 % of control

## c1ccc2c(c1)ccc1cc3cc(NCCCCNc4ccc5nc6c(ccc7ccccc76)cc5c4)ccc3nc12
dose: 1.56 mg/kg/injection, schedule: Q01DX009 (ip), vehicle: saline with Tween-80
  T/C: 95 % of control
dose: 3.13 mg/kg/injection, schedule: Q01DX009 (ip), vehicle: saline with Tween-80
  T/C: 92 % of control
dose: 6.25 mg/kg/injection, schedule: Q01DX009 (ip), vehicle: saline with Tween-80
  T/C: 95 % of control and 111 % of control
[7]
  T/C: 87 % of control

## Cc1ccccc1C(=O)c1ccccc1C(=O)c1ccccc1
dose: 50.0 mg/kg/injection, schedule: Q01DX001 (ip), vehicle: carboxymethylcellulose (CMC)
  T/C: 98 % of control
dose: 100.0 mg/kg/injection, schedule: Q01DX001 (ip), vehicle: carboxymethylcellulose (CMC)
  T/C: 88 % of control
[15]
  T/C: 97 % of control
dose: 200.0 mg/kg/injection, schedule: Q01DX001 (ip), vehicle: carboxymethylcellulose (CMC)
  T/C: 93 % of control
[16]
  T/C: 95 % of control
dose: 400.0 mg/kg/injection, schedule: Q01DX001 (ip), vehicle: carboxymethylcellulose (CMC)
  T/C: 101 % of control
[17]
  T/C: 97 % of control

## Cc1ccc(C(SCC(N)C(=O)O)(c2ccc(C)cc2)c2ccc(C)cc2)cc1 (stereo not drawn)
dose: 4.8 mg/kg/injection, schedule: Q01DX009 (ip), vehicle: saline
  T/C: 95 % of control
dose: 6.5 mg/kg/injection, schedule: Q01DX009 (ip), vehicle: saline
  T/C: 108 % of control
dose: 7.2 mg/kg/injection, schedule: Q01DX009 (ip), vehicle: saline
  T/C: 104 % of control
[9]
  T/C: 123 % of control
dose: 50.0 mg/kg/injection, schedule: Q01DX009 (ip), vehicle: other
  T/C: 120 % of control
[14]
  T/C: 157 % of control
[15]
  T/C: 221 % of control
dose: 400.0 mg/kg/injection, schedule: Q01DX009 (ip), vehicle: other
  T/C: 94 % of control

## CNC(=O)Oc1c([N+](=O)[O-])c([N+](=O)[O-])cc2ccccc12
dose: 75.0 mg/kg/injection, schedule: Q01DX001 (ip), vehicle: other
  T/C: 100 % of control

## CCCCOCN1C(=O)NC(c2ccccc2)(c2ccccc2)C1=O
[8]
  T/C: 108 % of control
[18]
  T/C: 94 % of control

## O=C(O)C1OC1(c1cccc(Cl)c1)c1ccccc1Cl (stereo not drawn)
dose: 100.0 mg/kg/injection, schedule: Q01DX001 (ip), vehicle: olive oil, sesame oil, peanut oil
  T/C: 101 % of control
dose: 200.0 mg/kg/injection, schedule: Q01DX001 (ip), vehicle: olive oil, sesame oil, peanut oil
  T/C: 106 % of control

## Cn1cnc2c(=O)[nH]nnc21
dose: 100.0 mg/kg/injection, schedule: Q01DX005 (ip), vehicle: saline
  T/C: 96 % of control
dose: 200.0 mg/kg/injection, schedule: Q01DX005 (ip), vehicle: saline
  T/C: 112 % of control

## CCCCCCCCCCCCCCCCCC[P+](CCCC)(CCCC)CCCC
dose: 0.75 mg/kg/injection, schedule: Q04DX002 (ip), vehicle: saline with Tween-80
  T/C: 110 % of control
dose: 1.5 mg/kg/injection, schedule: Q04DX002 (ip), vehicle: saline with Tween-80
  T/C: 90 % of control
dose: 3.0 mg/kg/injection, schedule: Q04DX002 (ip), vehicle: saline with Tween-80
  T/C: 100 % of control
dose: 3.12 mg/kg/injection, schedule: Q04DX002 (ip), vehicle: saline with Tween-80
  T/C: 87 % of control
dose: 6.25 mg/kg/injection, schedule: Q04DX002 (ip), vehicle: saline with Tween-80
  T/C: 94 % of control

## CC(=O)c1ccc2oc3ccccc3c2c1
[4]
  T/C: 97 % of control
[5]
  T/C: 100 % of control
[6]
  T/C: 93 % of control

## Cc1nnc(N)s1
dose: 100.0 mg/kg/injection, schedule: Q01DX001 (ip), vehicle: other
  T/C: 102 % of control
[18]
  T/C: 95 % of control
dose: 100.0 mg/kg/injection, schedule: Q04DX003 (ip), vehicle: other
  T/C: 104 % of control
dose: 200.0 mg/kg/injection, schedule: Q01DX001 (ip), vehicle: other
  T/C: 102 % of control
dose: 200.0 mg/kg/injection, schedule: Q01DX009 (ip), vehicle: saline with Tween-80
  T/C: 92 % of control
dose: 200.0 mg/kg/injection, schedule: Q04DX003 (ip), vehicle: other
  T/C: 95 % of control
dose: 400.0 mg/kg/injection, schedule: Q01DX001 (ip), vehicle: other
  T/C: 100 % of control
dose: 400.0 mg/kg/injection, schedule: Q01DX009 (ip), vehicle: saline with Tween-80
  T/C: 93 % of control
dose: 400.0 mg/kg/injection, schedule: Q04DX003 (ip), vehicle: other
  T/C: 98 % of control

## CCOC(=O)c1csc(CCNC(=O)c2ccccc2)n1
[1]
  T/C: 99 % of control
[15]
  T/C: 108 % of control
[13]
  T/C: 96 % of control
[2]
  T/C: 102 % of control
[16]
  T/C: 97 % of control
dose: 200.0 mg/kg/injection, schedule: Q04DX003 (ip), vehicle: saline
  T/C: 98 % of control
[3]
  T/C: 96 % of control
[17]
  T/C: 100 % of control
dose: 400.0 mg/kg/injection, schedule: Q04DX003 (ip), vehicle: saline
  T/C: 95 % of control

## CS(=O)(=O)c1nsc(S(C)(=O)=O)c1C#N
dose: 100.0 mg/kg/injection, schedule: Q04DX003 (ip), vehicle: carboxymethylcellulose (CMC)
  T/C: 95 % of control
dose: 200.0 mg/kg/injection, schedule: Q04DX003 (ip), vehicle: carboxymethylcellulose (CMC)
  T/C: 97 % of control
dose: 400.0 mg/kg/injection, schedule: Q04DX003 (ip), vehicle: carboxymethylcellulose (CMC)
  T/C: 95 % of control

## COc1cc(Cl)ccc1NC(=O)Oc1ccc2ccccc2c1
[4]
  T/C: 108 % of control
[5]
  T/C: 90 % of control
[6]
  T/C: 104 % of control

## CCCN(CCC)N=Nc1ccccc1-c1nc(N)nc(N)n1
dose: 100.0 mg/kg/injection, schedule: Q04DX003 (ip), vehicle: Klucel (hydroxypropylcellulose) (HPC)
  T/C: 101 % of control
dose: 200.0 mg/kg/injection, schedule: Q04DX003 (ip), vehicle: Klucel (hydroxypropylcellulose) (HPC)
  T/C: 119 % of control
dose: 400.0 mg/kg/injection, schedule: Q04DX003 (ip), vehicle: Klucel (hydroxypropylcellulose) (HPC)
  T/C: 109 % of control

## CC(=O)NCC(C)OC(C)=O (stereo not drawn)
[15]
  T/C: 104 % of control
[16]
  T/C: 97 % of control
[17]
  T/C: 97 % of control
